Data: patent publication EP4640206A1, “NISIN FOR INHIBITING BIOFILMS” (SkyLab AG, priority 2024, dated 2025)

Test system: multispecies biofilms
Assay: Follow-up observation of pH of washes of a laboratory model of multispecies biofilms in 10% sucrose
Format: cell-based
Details: for Value of pH decrease within 30 min. of measurement (%): compared to the initial value
Procedure: Example No. 3. Follow-up observation of pH of washes of a laboratory model of multispecies biofilms.
To perform this test, it was necessary to obtain multispecies biofilms of bacteria. A 72-well, round-bottom, polystyrene plate for titration was used as an adhesive surface for growing multispecies biofilms. The inner surface was processed with a round abrasive drill bit, with visual inspection of the procedure. Then the plate was washed and immersed into isopropyl alcohol for 10 min. followed by 3-fold washing in distilled water.
Saliva was collected in the fasting state by spitting into a sterile centrifuge tube. Saliva was used to prepare inoculum with the following composition: 96.5 ml of saliva, 1 ml of 10% sucrose, 3.5 ml of S.mutans suspension 0.8 units of McF.
To obtain biofilms, the prepared inoculum was poured 1 ml into all wells of the prepared plate, after which the wells were covered with a similar plate and sealed with parafilm film. The plate was placed on a shaker pad with variable surface slope placed in a CO2 incubator and incubated overnight (16 hours). The contents of the wells were then extracted with an aspirator by dipping the plastic tip into the center of the well until completely drained. 1 ml of soy-casein broth was added to all wells of the plate with an automatic pipette. The plate was placed into the incubator. The described cycle was repeated for four days.
Biofilm formation was monitored visually by gram staining. After four days, the contents of the wells were extracted with an aspirator. All 6 wells of the first row were filled with 1 ml of deionized water and left for 5 min. Water was extracted with an aspirator; 1 ml of the test drug was added into the wells, in 1 min. the drug was removed, the wells were filled for 1 min. with deionized water, then it was removed. 250 µl of 10% sucrose solution was added to the wells. The formed biofilms were scraped off with a disposable loop (10µl); the suspension of two neighboring wells was combined and transferred to three Eppendorfs. Sample combination allowed increasing the volume of the analyzed suspension sample up to 0.5 ml, which in turn allowed carrying out pH measurements in free volume with the necessary reserve at high density of biofilm culture of microorganisms and optimal time for the sample measurement procedure (20 sec.). After combination of the samples, pH was immediately measured. The measurement time points were 0, 1, 2, 3, 4, 5, 6, 6, 7, 8, 9, 10, 15,20,30 min. The results of pH changes in multispecies dental biofilms in the presence of sucrose under the influence of active ingredients are shown in Figure 3 and Tables 3-4. Table 3. Results of pH measurements of mechanically disrupted multispecies biofilms in 10% sucrose solution, follow-up (10% sucrose solution pH-6.98).

## Nisin
Nisin 0.004%, 0 min
  pH of mechanically disrupted multispecies biofilms: 6.32±0.006
Nisin 0.004%, 1 min
  pH of mechanically disrupted multispecies biofilms: 6.3±0.006
Nisin 0.004%, 1 min vs previous time point
  pH change (in brackets), multispecies biofilms: -0.02
Nisin 0.004%, 2 min
  pH of mechanically disrupted multispecies biofilms: 6.28±0.0
Nisin 0.004%, 2 min vs previous time point
  pH change (in brackets), multispecies biofilms: -0.02
Nisin 0.004%, 3 min
  pH of mechanically disrupted multispecies biofilms: 6.26±0.006
Nisin 0.004%, 3 min vs previous time point
  pH change (in brackets), multispecies biofilms: -0.02
Nisin 0.004%, 4 min
  pH of mechanically disrupted multispecies biofilms: 6.24±0.01
Nisin 0.004%, 4 min vs previous time point
  pH change (in brackets), multispecies biofilms: -0.02
Nisin 0.004%, 5 min
  pH of mechanically disrupted multispecies biofilms: 6.22±0.006
Nisin 0.004%, 5 min vs previous time point
  pH change (in brackets), multispecies biofilms: -0.02
Nisin 0.004%, 6 min
  pH of mechanically disrupted multispecies biofilms: 6.2±0.0
Nisin 0.004%, 6 min vs previous time point
  pH change (in brackets), multispecies biofilms: -0.02
Nisin 0.004%, 7 min
  pH of mechanically disrupted multispecies biofilms: 6.2±0.006
Nisin 0.004%, 7 min vs previous time point
  pH change (in brackets), multispecies biofilms: 0
Nisin 0.004%, 8 min
  pH of mechanically disrupted multispecies biofilms: 6.19±0.0
Nisin 0.004%, 8 min vs previous time point
  pH change (in brackets), multispecies biofilms: -0.01
Nisin 0.004%, 9 min
  pH of mechanically disrupted multispecies biofilms: 6.19±0.006
Nisin 0.004%, 9 min vs previous time point
  pH change (in brackets), multispecies biofilms: 0
Nisin 0.004%, 10 min
  pH of mechanically disrupted multispecies biofilms: 6.18±0.0
Nisin 0.004%, 10 min vs previous time point
  pH change (in brackets), multispecies biofilms: -0.01
Nisin 0.004%, 15 min
  pH of mechanically disrupted multispecies biofilms: 6.12±0.006
Nisin 0.004%, 15 min vs previous time point
  pH change (in brackets), multispecies biofilms: -0.06
Nisin 0.004%, 20 min
  pH of mechanically disrupted multispecies biofilms: 6.11±0.0
Nisin 0.004%, 20 min vs previous time point
  pH change (in brackets), multispecies biofilms: -0.01
Nisin 0.004%, 30 min
  pH of mechanically disrupted multispecies biofilms: 6.07±0.006
Nisin 0.004%, 30 min vs previous time point
  pH change (in brackets), multispecies biofilms: -0.04
Nisin 0.004%
  Value of pH decrease within 30 min. of measurement (%): -3.95%
Nisin 0.008%
  Value of pH decrease within 30 min. of measurement (%): -8.7%
Nisin 0,008%, 0 min
  pH of mechanically disrupted multispecies biofilms: 6.54±0.006
Nisin 0,008%, 1 min
  pH of mechanically disrupted multispecies biofilms: 6.45±0.006
Nisin 0,008%, 1 min vs previous time point
  pH change (in brackets), multispecies biofilms: -0.09
Nisin 0,008%, 2 min
  pH of mechanically disrupted multispecies biofilms: 6.4±0.006
Nisin 0,008%, 2 min vs previous time point
  pH change (in brackets), multispecies biofilms: -0.05
Nisin 0,008%, 3 min
  pH of mechanically disrupted multispecies biofilms: 6.35±0.006
Nisin 0,008%, 3 min vs previous time point
  pH change (in brackets), multispecies biofilms: -0.05
Nisin 0,008%, 4 min
  pH of mechanically disrupted multispecies biofilms: 6.3±0.006
Nisin 0,008%, 4 min vs previous time point
  pH change (in brackets), multispecies biofilms: -0.05
Nisin 0,008%, 5 min
  pH of mechanically disrupted multispecies biofilms: 6.22±0.01
Nisin 0,008%, 5 min vs previous time point
  pH change (in brackets), multispecies biofilms: -0.08
Nisin 0,008%, 6 min
  pH of mechanically disrupted multispecies biofilms: 6.16±0.006
Nisin 0,008%, 6 min vs previous time point
  pH change (in brackets), multispecies biofilms: -0.06
Nisin 0,008%, 7 min
  pH of mechanically disrupted multispecies biofilms: 6.1±0.01
Nisin 0,008%, 7 min vs previous time point
  pH change (in brackets), multispecies biofilms: -0.06
Nisin 0,008%, 8 min
  pH of mechanically disrupted multispecies biofilms: 6.0±0.02
Nisin 0,008%, 8 min vs previous time point
  pH change (in brackets), multispecies biofilms: -0.1
Nisin 0,008%, 9 min
  pH of mechanically disrupted multispecies biofilms: 5.99±0.006
Nisin 0,008%, 9 min vs previous time point
  pH change (in brackets), multispecies biofilms: -0.01
Nisin 0,008%, 10 min
  pH of mechanically disrupted multispecies biofilms: 5.98±0.0
Nisin 0,008%, 10 min vs previous time point
  pH change (in brackets), multispecies biofilms: -0.01
Nisin 0,008%, 15 min
  pH of mechanically disrupted multispecies biofilms: 5.97±0.006
Nisin 0,008%, 15 min vs previous time point
  pH change (in brackets), multispecies biofilms: -0.01
Nisin 0,008%, 20 min
  pH of mechanically disrupted multispecies biofilms: 5.96±0.006
Nisin 0,008%, 20 min vs previous time point
  pH change (in brackets), multispecies biofilms: -0.01
Nisin 0,008%, 30 min
  pH of mechanically disrupted multispecies biofilms: 5.97±0.006
Nisin 0,008%, 30 min vs previous time point
  pH change (in brackets), multispecies biofilms: +0.01
Nisin 0.004 and 0.008%
  effect on the value of acidity in the multispecies biofilm affected by sucrose: stabilizing effect

## NC(N)=O [Urea, reference compound]
Urea 0.5%, 0 min
  pH of mechanically disrupted multispecies biofilms: 6.4±0.006
Urea 0.5%, 1 min
  pH of mechanically disrupted multispecies biofilms: 6.4±0.006
Urea 0.5%, 1 min vs previous time point
  pH change (in brackets), multispecies biofilms: 0
Urea 0.5%, 2 min
  pH of mechanically disrupted multispecies biofilms: 6.4±0.006
Urea 0.5%, 2 min vs previous time point
  pH change (in brackets), multispecies biofilms: 0
Urea 0.5%, 3 min
  pH of mechanically disrupted multispecies biofilms: 6.4±0.006
Urea 0.5%, 3 min vs previous time point
  pH change (in brackets), multispecies biofilms: 0
Urea 0.5%, 4 min
  pH of mechanically disrupted multispecies biofilms: 6.41±0.006
Urea 0.5%, 4 min vs previous time point
  pH change (in brackets), multispecies biofilms: +0.01
Urea 0.5%, 5 min
  pH of mechanically disrupted multispecies biofilms: 6.42±0.006
Urea 0.5%, 5 min vs previous time point
  pH change (in brackets), multispecies biofilms: +0.01
Urea 0.5%, 6 min
  pH of mechanically disrupted multispecies biofilms: 6.44±0.006
Urea 0.5%, 6 min vs previous time point
  pH change (in brackets), multispecies biofilms: +0.02
Urea 0.5%, 7 min
  pH of mechanically disrupted multispecies biofilms: 6.45±0.006
Urea 0.5%, 7 min vs previous time point
  pH change (in brackets), multispecies biofilms: +0.01
Urea 0.5%, 8 min
  pH of mechanically disrupted multispecies biofilms: 6.43±0.02
Urea 0.5%, 8 min vs previous time point
  pH change (in brackets), multispecies biofilms: -0.02
Urea 0.5%, 9 min
  pH of mechanically disrupted multispecies biofilms: 6.43±0.0
Urea 0.5%, 9 min vs previous time point
  pH change (in brackets), multispecies biofilms: 0
Urea 0.5%, 10 min
  pH of mechanically disrupted multispecies biofilms: 6.42±0.0
Urea 0.5%, 10 min vs previous time point
  pH change (in brackets), multispecies biofilms: -0.01
Urea 0.5%, 15 min
  pH of mechanically disrupted multispecies biofilms: 6.25±0.01
Urea 0.5%, 15 min vs previous time point
  pH change (in brackets), multispecies biofilms: -0.17
Urea 0.5%, 20 min
  pH of mechanically disrupted multispecies biofilms: 6.18±0.02
Urea 0.5%, 20 min vs previous time point
  pH change (in brackets), multispecies biofilms: -0.07
Urea 0.5%, 30 min
  pH of mechanically disrupted multispecies biofilms: 5.97±0.02
Urea 0.5%, 30 min vs previous time point
  pH change (in brackets), multispecies biofilms: -0.21
Urea 0.5%
  Value of pH decrease within 30 min. of measurement (%): -6.7%
